Experimental data from ChEMBL document CHEMBL1147590, “Synthesis and antitumor activity of s-tetrazine derivatives” (Bioorg Med Chem Lett, 2004).

Columns and labels:
A549 [1] = assay: In vitro rate of inhibition of A-549 tumor cell growth at 10E-7 mol/L; format: functional, Homo sapiens; settings: at 0.1 µM
A549 [2] = assay: In vitro rate of inhibition of A-549 tumor cell growth at 10E-8 mol/L; format: functional, Homo sapiens; settings: at 0.01 µM
P388 [3] = assay: In vitro rate of inhibition of P388 tumor cell growth at 10E-7 mol/L; format: functional, Mus musculus; settings: at 0.1 µM
P388 [4] = assay: In vitro rate of inhibition of P388 tumor cell growth at 10E-6 mol/L; format: functional, Mus musculus; settings: at 1 µM
A549 [5] = assay: In vitro rate of inhibition of A-549 tumor cell growth at 10E-4 mol/L; format: functional, Homo sapiens; settings: at 100 µM
A549 [6] = assay: In vitro rate of inhibition of A-549 tumor cell growth at 10E-6 mol/L; format: functional, Homo sapiens; settings: at 1 µM
P388 [7] = assay: In vitro rate of inhibition of P388 tumor cell growth at 10E-5 mol/L; format: functional, Mus musculus; settings: at 10 µM
A549 [8] = assay: In vitro rate of inhibition of A-549 tumor cell growth at 10E-5 mol/L; format: functional, Homo sapiens; settings: at 10 µM
P388 [9] = assay: In vitro rate of inhibition of P388 tumor cell growth at 10E-4 mol/L; format: functional, Mus musculus; settings: at 100 µM
P388 [10] = assay: In vitro rate of inhibition of P388 tumor cell growth at 10E-8 mol/L; format: functional, Mus musculus; settings: at 0.01 µM

| Structure (SMILES) | Rate of inhibition (A549 [1]) | Rate of inhibition (A549 [2]) | Rate of inhibition (P388 [3]) | Rate of inhibition (P388 [4]) | Rate of inhibition (A549 [5]) | Rate of inhibition (A549 [6]) | Rate of inhibition (P388 [7]) | Rate of inhibition (A549 [8]) | Rate of inhibition (P388 [9]) | Rate of inhibition (P388 [10]) |
| --- | --- | --- | --- | --- | --- | --- | --- | --- | --- | --- |
| CC1=NNC(C)N=N1 (stereo not given) | 5.5% | 0% | 15.9% | 9.2% | 67.7% | 0% | 19.7% | 4.8% | 100% | 0% |
| CCCCCOC(=O)N1N=C(C)N=NC1C (stereo not given) | 1.1% | 7.6% | 0% | 7.3% | 22.8% | 0% | 19.8% | 4.6% | 42.6% | 0% |
| Cc1ccc(-c2nnc(-c3ccc(C)cc3)nn2)cc1 | 0% | 0% | 2.4% | 4.4% | 90.3% | 0% | 8.3% | 17% | 56.4% | 4.5% |
| CC1=NN(C(=O)Nc2ccccc2Cl)C(C)=NN1C(=O)Nc1ccccc1Cl | 0% | 0% | 0% | 1.6% | 28.8% | 0% | 41.3% | 0% | 90.5% | 0% |
| CCOC(=O)c1ccc(NC(=O)N2N=C(C)N(C(=O)Nc3ccc(C(=O)OCC)cc3)N=C2C)cc1 | 0% | 0% | 0% | 1.6% | 27.3% | 0% | 25.4% | 28.8% | 63.5% | 0% |
| CCCC1=NN(C(=O)OCCC(C)C)C(CCC)N=N1 (stereo not given) | 0% | 0% | 7.3% | 6.9% | 89.4% | 0% | 14.3% | 0% | 83.5% | 9.9% |
| CCCC1=NN(C(=O)OC)C(CCC)N=N1 (stereo not given) | 0% | 0% | 1.7% | 4.5% | 59.6% | 0% | 17.3% | 0% | 90.4% | 3.3% |
| CCCC1=NNC(CCC)N=N1 (stereo not given) | 0% | 0% | 0% | 0% | 61.7% | 0% | 0% | 0.5% | 42.2% | 0% |
| CC1=NN(C(=O)Nc2cccc([N+](=O)[O-])c2)C(C)=NN1C(=O)Nc1cccc([N+](=O)[O-])c1 | 0% | 0% | 20.6% | 38.1% | 0.9% | 0% | 58.7% | 0% | 69.8% | 22.2% |
| CCCCCOC(=O)N1N=C(CCC)N=NC1CCC (stereo not given) | 0% | 2.5% | 0% | 5.6% | 0% | 2.3% | 7.7% | 0.7% | 32.8% | 0% |
| CC1=NN(C(=O)NC2CCCCC2)C(C)=NN1C(=O)NC1CCCCC1 | 0% | 0% | 0% | 0% | 58.9% | 0% | 0% | 3.5% | 72.6% | 0% |
| Clc1ccc(Cc2nnc(Cc3ccc(Cl)cc3)nn2)cc1 | 1.1% | 8.7% | 8.9% | 9.3% | 65.8% | 13.1% | 29.1% | 57.1% | 58.4% | 0% |
| COc1cc(NC(=O)N2N=C(C)N(C(=O)Nc3cc(OC)cc(OC)c3)N=C2C)cc(OC)c1 | 75% | 26.1% | 90.7% | 88.9% | 87.5% | 77.3% | 88.8% | 79.3% | 94.4% | 73.1% |
| C1=CN(c2nnc(N3C=CN=CC3)nn2)CC=N1 | 0% | 0% | 0% | 0% | 60.6% | 0% | 0% | 3.9% | 69.9% | 0% |
| CCCOC(=O)N1C(c2ccccc2)=NN=C(c2ccccc2)N1C(=O)OCCC | 0% | 0% | 4.3% | 4.5% | 23.4% | 0.5% | 54.8% | 29.8% | 80.9% | 2.5% |
| CC1=NN(C(=O)Nc2cc(Cl)cc(Cl)c2)C(C)=NN1C(=O)Nc1cc(Cl)cc(Cl)c1 | 0% | 0% | 0% | 1.9% | 42% | 0% | 5.9% | 0% | 30.6% | 0% |
| CCCC1=NN(C(=O)OC2CCCCC2)C(CCC)N=N1 (stereo not given) | 18.1% | 1% | 44.8% | 38.3% | 25.8% | 23.5% | 33.6% | 5.2% | 44% | 4.5% |
| CCCC1=NN(C(=O)Nc2ccccc2)C(CCC)=NN1C(=O)Nc1ccccc1 | 6.1% | 2.5% | 4.4% | 22.8% | 56.6% | 48.3% | 61.5% | 78.3% | 85.4% | 4.1% |
| CC1=NN(C(=O)Nc2cccc(N(C)C)c2)C(C)=NN1C(=O)Nc1cccc(N(C)C)c1 | 73.9% | 69.3% | 88.9% | 89.8% | 93.2% | 80.7% | 84.3% | 83% | 95.4% | 90.7% |
| CC1=NN(C(=O)Nc2ccccc2C)C(C)=NN1C(=O)Nc1ccccc1C | 0% | 0% | 0% | 1.6% | 80% | 0% | 18.8% | 0% | 82.8% | 0% |
| CCC1NN(C(C)=O)C(CC)NN1C(C)=O (stereo not given) | 2.9% | 0% | 0% | 0% | 47.5% | 10.1% | 0% | 9.7% | 38.9% | 0% |
| CC(=O)N1NC(C)N(C(C)=O)NC1C (stereo not given) | 7.4% | 3.2% | 0% | 4.3% | 68.5% | 3.6% | 0.1% | 6% | 14.5% | 0% |
| CCC1=NN(C(=O)Nc2cccc(C)c2)C(CC)=NN1C(=O)Nc1cccc(C)c1 | 16.7% | 1.6% | 0% | 0% | 90.4% | 81.1% | 63.5% | 84.1% | 91.6% | 0% |
| CC1=NN(C(=O)Nc2cccc(Cl)c2)C(C)=NN1C(=O)Nc1cccc(Cl)c1 | 0% | 0% | 0% | 6.3% | 21.2% | 0% | 29.7% | 7.6% | 85.9% | 0% |
